We go through 45 compounds from patent US11352330B2, “Phenoxymethyl derivatives” (Hoffmann-La Roche Inc., priority 2015, dated 2022).

pIC50: −log10 of the molar value.

In this assay the target is human ATX (Homo sapiens (Human), UniProt Q13822). The assay can be described thus: Human ATX enzyme inhibition assay (fluorescence quenching, MR121 substrate). In kind it is biochemical. The following applies: human His-tagged ATX 30 nM, MR121 substrate 1 μM, 30° C. The protocol:
Human ATX Enzyme Inhibition Assay
ATX inhibition was measured by a fluorescence quenching assay using a specifically labeled substrate analogue (MR121 substrate). To obtain this MR121 substrate, BOC and TBS protected 6-amino-hexanoic acid (R)-3-({2-[3-(2-{2-[2-(2-amino-ethoxy)-ethoxy]-ethoxy}-ethoxy)-propionylamino]-ethoxy}-hydroxy-phosphoryloxy)-2-hydroxy-propyl ester (Ferguson et al., Org Lett 2006, 8 (10), 2023) was labeled with MR121 fluorophore (CAS 185308-24-1, 1-(3-carboxypropyl)-11-ethyl-1,2,3,4,8,9,10,11-octahydro-dipyrido[3,2-b:2′,3′-i]phenoxazin-13-ium) on the free amine of the ethanolamine side and then, after deprotection, subsequently with tryptophan on the side of the aminohexanoic acid.
Assay working solutions were made as follows:
Assay buffer (50 mM Tris-HCl, 140 mM NaCl, 5 mM KCl, 1 mM CaCl2, 1 mM MgCl2, 0.01% Triton-X-100, pH 8.0;
ATX solution: ATX (human His-tagged) stock solution (1.08 mg/mL in 20 mM bicine, pH 8.5, 0.15 M NaCl, 10% glycerol, 0.3% CHAPS, 0.02% NaN3), diluted to 1.4-2.5× final concentration in assay buffer;
MR121 substrate solution: MR121 substrate stock solution (800 μM MR121 substrate in DMSO), diluted to 2-5× final concentration in assay buffer.
Test compounds (10 mM stock in DMSO, 8 μL) were obtained in 384 well sample plates (Corning Costar #3655) and diluted with 8 μL DMSO. Row-wise serial dilutions were made by transferring 8 μL cpd solution to the next row up to row O. The compound and control solutions were mixed five times and 2 μL were transferred to 384 well assay plates (Corning Costar #3702). Then, 15 μL of 41.7 nM ATX solution was added (30 nM final concentration), mixed five times and then incubated for 15 minutes at 30° C. 10 μL of MR121 substrate solution was added (1 μM final concentration), mixed 30 times and then incubated for 15 minutes at 30° C.

For `Cc1cc(OCc2n[nH]c(=O)n2C)c(-c2ccccc2)cc1Cl` [Example B1, 3-[(4-Chloro-5-methyl-2-phenylphenoxy)methyl]-4-methyl-1H-1,2,4-triazol-5-one], the pIC50 – broadly, the negative decadic logarithm of the IC50, by convention in mol/L – is 8.52.

Regarding `COc1ncccc1-c1cc(Cl)c(C)cc1OCc1ccc(=O)[nH]n1` [Example C10], the pIC50 was 7.49.

As to `Cc1cc(OCc2n[nH]c3ncccc23)c(-c2cc(C(=O)N(C)C)ccc2F)cc1Cl` [Example D21], the negative logarithm of the IC50 (pIC50) was 8.05.

`Cc1cc(OCc2n[nH]c3nc(NCCO)ncc23)c(C(C)(C)C)cc1C#N` [Example D35] showed a pIC50 of 8.05.

As to `Cc1cc(OCc2n[nH]c(=O)n2C)c(-c2ncccn2)cc1Cl` [Example B23, 3-[(4-Chloro-5-methyl-2-pyrimidin-2-yl-phenoxy)methyl]-4-methyl-1H-1,2,4-triazol-5-one], the negative-log IC50 (pIC50) was 6.67. Against the preceding compound, the pIC50 is 1.38 log units lower.

`Cc1nnc(-c2cccc(-c3cc(C#N)c(Cl)cc3OCc3n[nH]c(=O)n3C)c2)o1` [Example B37]: the pIC50 was 7.10.

With `Cc1cc(OCc2ccc(=O)[nH]n2)c(C(C)(C)C)cc1Cl` [Example C8, 3-[(2-tert-butyl-4-chloro-5-methylphenoxy)methyl]-1H-pyridazin-6-one], the pIC50 was 8.30. Against the preceding compound, the pIC50 is 1.20 log units higher.

The compound `Cc1cc(OCc2n[nH]c(=O)n2C)c(C(C)C)cc1C#N` [Example A12] gave a pIC50 of 9.00.

The compound `Cc1cc(OCc2n[nH]c(=O)n2C)c(-c2cnco2)cc1Cl` [Example B26] showed a pIC50 of 6.31.

In the case of `Cc1cc(OCc2n[nH]c(=O)n2C)c(-c2cccc(C(=O)N(C)C)c2)cc1Cl` [Example B12], the negative-log IC50 (pIC50) was 7.66.

For the compound `COC(=O)c1cccc(-c2cc(Cl)c(C)cc2OCc2n[nH]c(=O)n2C)c1` [Example B42, Methyl 3-[5-chloro-4-methyl-2-[(4-methyl-5-oxo-1H-1,2,4-triazol-3-yl)methoxy]phenyl]benzoate], the pIC50 was 7.68.

In turn, `Cc1cc(OCc2n[nH]c(=O)n2C)c(-c2cccc(C(=O)N3CCOCC3)c2)cc1Cl` [Example B10] showed a pIC50 of 7.64.

On to `CNC(=O)c1cccc(-c2cc(C#N)c(Cl)cc2OCc2n[nH]c(=O)n2C)c1` [Example B33], for which the pIC50 is 6.94.

With `Cn1c(COc2cc(NS(C)(=O)=O)c(Cl)cc2C2CC2)n[nH]c1=O` [Example A23], the pIC50 was below 4.57.

For `COc1cccc(-c2cc(Cl)c(C)cc2OCc2n[nH]c(=O)n2C)c1F` [Example B90], the pIC50 was 8.15.

Regarding `N#Cc1cc(-c2cc(C(=O)N3CCCC3)ccc2F)c(OCc2n[nH]c3ncccc23)cc1Cl` [Example D43], the pIC50 was 8.15.

Compound `Cc1cc(OCc2n[nH]c(=O)n2C)c(-c2cc(CN3CCCC3=O)ccc2F)cc1Cl` [Example B81] had a pIC50 of 8.52.

For `Cc1cc(OCc2n[nH]c(=O)n2C)c(-c2cncc(C(N)=O)c2)cc1Cl` [Example B20], the pIC50 was 6.04.

Compound `CC(C)c1cc(Cl)ccc1OCc1n[nH]c(=O)n1C` [Example A29] had a negative logarithm of the IC50 (pIC50) of 7.30. This pIC50 lies 1.26 log units higher than the previous one.

As to `Cn1c(COc2cc(Cl)c(C#N)cc2-c2cccc(C(=O)N3CCOCC3)c2)n[nH]c1=O` [Example B41], the pIC50 is 7.40.

As to `Cc1cc(OCc2n[nH]c(=O)n2C)c(-c2cc(OCC3CCOCC3)ccc2F)cc1Cl` [Example B72], the pIC50 is 8.00.

Take `Cn1c(COc2ccc(C#N)cc2-c2ccccc2)n[nH]c1=O` [Example B16]: the negative logarithm of the IC50 (pIC50) was 7.60.

Take `COc1ncccc1-c1cc(Cl)c(C)cc1OCc1n[nH]c2c1CCN(C(C)=O)C2` [Example E8, 1-(3-((4-Chloro-2-(2-methoxypyridin-3-yl)-5-methylphenoxy)methyl)-4,5-dihydro-1H-pyrazolo[3,4-c]pyridin-6(7H)-yl)ethanone]: the pIC50 is 7.16. Against the preceding compound, the pIC50 is 0.44 log units lower.

`COc1ncccc1-c1cc(Cl)c(C)cc1OCc1n[nH]c(=O)n1C` [Example B53]: the pIC50 is 7.38.

`Cc1cc(OCc2n[nH]c(=O)n2C)c(-c2cc(OCC3CCCO3)ccc2F)cc1Cl` (stereo not drawn) [Example B74] gave a negative-log IC50 (pIC50) of 8.22.

In turn, `Cc1cc(C(C)(C)C)c(OCc2ccc(=O)[nH]n2)cc1C#N` [Example C13] gave a pIC50 of 7.40.

Consider `Cn1c(COc2cc(C#N)ccc2C(C)(C)C)n[nH]c1=O` [Example A24], for which the pIC50 was 7.04.

In the case of `Cn1c(COc2cc(Cl)c(C#N)cc2-c2cc(C(F)(F)F)ccc2F)n[nH]c1=O` [Example B96], the pIC50 is 7.43.

Regarding `Cc1nc2cc(OCc3n[nH]c(=O)n3C)c(C3CC3)cc2s1` [Example A30], the pIC50 was 8.05.

`Cc1cc(OCc2n[nH]c(=O)n2C)c(-c2cc(C(=O)N(C)CCO)ccc2F)cc1Cl` [Example B64]: the pIC50 is 7.68.

`Cc1cc(OCc2n[nH]c3cccnc23)c(-c2cc(C(=O)N(C)C)ccc2F)cc1Cl` [Example D28] gave a pIC50 of 7.01.

For the compound `Cc1cc(C(C)C)c(OCc2ccc(=O)[nH]n2)cc1Cl` [Example C4, 3-[(5-chloro-4-methyl-2-propan-2-ylphenoxy)methyl]-1H-pyridazin-6-one], the pIC50 was 8.52.

The compound `Cc1nc(-c2cccc(-c3cc(C#N)c(Cl)cc3OCc3n[nH]c(=O)n3C)c2)no1` [Example B35] had a pIC50 of 7.09. This pIC50 is 1.43 log units lower than that of the compound before.

`Cc1cc(OCc2n[nH]c3ncccc23)c(-c2cc(C(=O)N3CCOCC3)ccc2F)cc1Cl` [Example D22] had a pIC50 of 8.00.

`Cc1cc(OCc2n[nH]c(=O)n2C)c(-c2cccc(C(=O)Nc3ccccc3)c2)cc1Cl` [Example B13] showed a pIC50 of 8.22.

`CC(=O)N1CCc2[nH]nc(COc3cc(C)c(Cl)cc3C(C)(C)C)c2C1` [Example E2, 1-(3-((2-tert-Butyl-4-chloro-5-methylphenoxy)methyl)-6,7-dihydro-1H-pyrazolo[4,3-c]pyridin-5(4H)-yl)ethanone] gave a negative-log IC50 (pIC50) of 4.38.

`Cn1c(COc2cc(C(N)=O)ccc2C(C)(C)C)n[nH]c1=O` [Example A25] gave a pIC50 of 6.02.

`COCC(=O)N1CCc2c(COc3cc(C)c(Cl)cc3C(C)(C)C)n[nH]c2C1` [Example E6, 1-(3-((2-tert-Butyl-4-chloro-5-methylphenoxy)methyl)-4,5-dihydro-1H-pyrazolo[3,4-c]pyridin-6(7H)-yl)-2-methoxyethanone] gave a pIC50 of 7.82.

As for `Cc1cc(OCc2n[nH]c(=O)n2C)c(-c2ccccc2Cl)cc1Cl` [Example B2], the pIC50 was 9.00.

Compound `Cc1cc(OCc2n[nH]c3ncccc23)c(C(C)(C)C)cc1C#N` [Example D4] gave a pIC50 of 8.05.

`Cc1cc(OCc2n[nH]c(=O)n2C)c(C2CC2)cc1Cl` [Example A19] had a pIC50 of 7.82. This pIC50 is 0.23 log units lower than that of the compound before.

With `Cn1c(COc2cc(Cl)c(C#N)cc2-c2cc(F)ccc2F)n[nH]c1=O` [Example B94], the pIC50 was 8.30.

With `Cc1cc(OCc2n[nH]c(=O)n2C)c(-c2cc(C(=O)N(C)C3CC3)ccc2F)cc1Cl` [Example B63], the negative logarithm of the IC50 (pIC50) is 8.00.

Take `COCCN(C)C(=O)c1ccc(F)c(-c2cc(Cl)c(C)cc2OCc2n[nH]c3ncccc23)c1` [Example D40]: the negative logarithm of the IC50 (pIC50) is 8.22.

Compound `CCOC(=O)CNC(=O)c1cccc(-c2cc(Cl)c(C)cc2OCc2n[nH]c(=O)n2C)c1` [Example B46, Ethyl 2-[[3-[5-chloro-4-methyl-2-[(4-methyl-5-oxo-1H-1,2,4-triazol-3-yl)methoxy]phenyl]benzoyl]amino]acetate] gave a pIC50 of 8.15.
